Laboratory results: patent US20190070183A1, “Targeting Casein Kinase-1 and PI3K/AKT/mTOR Pathways for Treatment of c-Myc-Overexpressing Cancers, Organ Transplant Associated Complications and Autoimmune Diseases” (The Trustees of Columbia University in the City of New York, priority 2015, published 2019)
One block for each compound: values may come before it.

How the values were obtained:
primary SLL cells = assay: Cytotoxicity in primary SLL cells (Cell Titer Glo); type: cell-based, human; settings: 48 hours, 2.5, 5, and 7.5 nM
DLBCL cell line LY10 = assay: Growth inhibition / viability of LY10 cells (CellTiter Glo), single agents and combinations, Bliss synergy; type: cell-based, human; settings: LY10, 24 h, single agent
primary AITL cells = assay: Cytotoxicity in primary AITL cells; type: cell-based, human
[1] = system: PI3K-AKT-mTOR-eIF4F-Myc signal cascade in LY10 cells; settings: LY10, 24 h, PI3K inhibitors 3 μM, proteasome inhibitors 2 nM, single or combined
CK1ε [2] = molecular target: T1, CK1ε (Homo sapiens, UniProt P49674); assay: CK1ε kinase activity assay (ADP-Glo, Promega)
T1 sequence (P49674 whole entry): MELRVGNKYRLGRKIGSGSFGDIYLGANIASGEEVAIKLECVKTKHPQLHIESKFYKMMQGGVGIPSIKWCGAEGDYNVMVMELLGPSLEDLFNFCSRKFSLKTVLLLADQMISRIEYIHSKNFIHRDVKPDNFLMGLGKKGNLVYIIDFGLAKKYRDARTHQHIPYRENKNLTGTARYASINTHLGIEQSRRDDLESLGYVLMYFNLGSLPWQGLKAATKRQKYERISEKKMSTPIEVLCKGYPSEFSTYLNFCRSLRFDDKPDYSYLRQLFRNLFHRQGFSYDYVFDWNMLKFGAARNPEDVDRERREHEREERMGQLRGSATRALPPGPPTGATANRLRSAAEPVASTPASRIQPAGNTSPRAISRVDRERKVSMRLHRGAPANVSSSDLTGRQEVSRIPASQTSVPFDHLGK

Western blot, LY7 cells = type: cell-based, human; settings: LY7 and LY10, 24 h
[3] = system: phosphorylation of 4EBP1 and protein level of c-Myc in LY7 cells; assay: Western blot, LY7 cells; type: cell-based, human; settings: for expression of c-Myc at 24 h: single agents
CK1ε [4] = molecular target: T1, CK1ε; assay: CK1ε autophosphorylation assay (calyculin A, Western blot); type: cell-based; design: Full-length recombinant human CK1ε (CK1epsilon) was expressed by baculovirus in Sf9 insect cells; GST (N); purchased Promega; host or cells: Sf9 insect cells (baculovirus)
CK1ε [5] = molecular target: T1, CK1ε; assay: Kinome profiling (Reaction Biology, radioisotope filter binding); settings: cell free, 1 μM
caspase 3/7 = assay: Activation of caspase 3/7 in LY10; type: cell-based, human; settings: LY10, 24 h
From the text: FIG. 3. […] FIG. 3L-N: PARP cleavage.

patients with DLBCL [6] = settings: 9 patients; Westin 2014; cited from earlier work
[7] = system: primary CLL and MCL cells; assay: Cytotoxicity in primary CLL and MCL cells; settings: 48 hours
DLBCL cell line LY7 = assay: LY7 viability (Cell Titer Glo); type: cell-based, human; settings: for activity inhibiting LY7 lymphoma cells (viability): 24 h, 10-50 μM, single agents
[8] = system: cap dependent translation downstream of the 5′ UTR of c-MYC; assay: Bicistronic luciferase reporter assay for c-Myc 5'UTR driven translation in LY7; type: cell-based, human; settings: LY7 stably expressing reporter, 24 hr, 25 μM
patients with DLBCL [9] = assay: Clinical trials in patients with DLBCL; type: in vivo, human
MOLT-4 cell line = assay: Subcutaneous xenograft model of T-ALL (MOLT-4) in NOD/SCID mice; type: in vivo; settings: daily oral 150 mg/kg, day 24, p<0.001
[10] = system: phosphorylated AKT at Ser473; assay: Inhibition of S473 p-AKT in serum-starved leukemia and lymphoma cell lines; type: cell-based, human; settings: 1 μM, 4 hours

SMILES: CC(C)C[C@H](NC(=O)[C@H](Cc1ccccc1)NC(=O)c1cnccn1)B(O)O [Bortezomib, [(1R)-3-methyl-1-({(2S)-3-phenyl-2-[(pyrazin-2-ylcarbonyl)amino]propanoyl}amino)butyl]boronic acid]
- inhibition of primary cells (primary SLL cells): 10-80%
- percentage of growth inhibition (DLBCL cell line LY10; 1 to 3 nM): did not produce significant inhibition
- percentage of growth inhibition (DLBCL cell line LY10; 4 to 8 nM): 42-90%
- single agent activity in AITL (primary AITL cells): more potent than carfilzomib
- inhibition of phosphorylation of 4EBP1 [1]: marginal or no inhibition
- inhibition of phosphorylation of AKT [1]: comparable and modest inhibition

SMILES: CC(C)Oc1ccc(-c2nn([C@@H](C)c3nc4cccc(F)c4c(=O)n3-c3ccccc3)c3ncnc(N)c23)cc1F [CUX-03173]
- IC50 (CK1ε [2]): 9.4 µM
- beta-catenin level (Western blot, LY7 cells): inhibited beta-catenin
- reduction of protein level of c-Myc ([3]; LY7, 24 h): more effective than idelalisib and PF4800567
- inhibition of protein level of c-Myc ([3]; LY7 and LY10, 24 h): as potent as TGR-1202
- autophosphorylation of CK1ε (CK1ε [4]; LY7, 15 μM, then calyculin A): inhibited

SMILES: CC(C)C[C@H](NC(=O)[C@H](CCc1ccccc1)NC(=O)CN1CCOCC1)C(=O)N[C@@H](Cc1ccccc1)C(=O)N[C@@H](CC(C)C)C(=O)[C@@]1(C)CO1 [Carfilzomib, (S)-4-methyl-N—((S)-1-(((S)-4-methyl-1-((R)-2-methyloxiran-2-yl)-1-oxopentan-2-yl)amino)-1-oxo-3-phenylpropan-2-yl)-2-((S)-2-(2-morpholinoacetamido)-4-phenylbutanamido)pentanamide]
- inhibition of primary cells (primary SLL cells): 10-90%
- percentage of growth inhibition (DLBCL cell line LY10; 1 to 2 nM): up to 35%
- inhibition of phosphorylation of 4EBP1 [1]: marginal or no inhibition
- inhibition of phosphorylation of AKT [1]: comparable and modest inhibition

- inhibition of kinase activity of CK1 epsilon (CK1ε [5]): not observed
SMILES: CC(Nc1ncnc2[nH]cnc12)c1cc2cccc(Cl)c2c(=O)n1-c1ccccc1 (stereo not drawn) [IPI-145]

SMILES: CC[C@H](Nc1ncnc2nc[nH]c12)c1nc2cccc(F)c2c(=O)n1-c1ccccc1 [Idelalisib]
- effect on caspase activation caused by bortezomib (caspase 3/7; 5 μM added to bortezomib): failed to augment
- IC50 (CK1ε [2]): > 50 µM
- inhibition of kinase activity of CK1 epsilon (CK1ε [5]): not observed
- suppression of phosphorylation of 4EBP1 and protein level of c-Myc ([3]; LY7, 6 hours, 25-50 μM): only at the concentration of 50 μM
- expression of c-Myc at 24 h ([3]; LY7, 24 h): rebounded
- responses in patients with DLBCL (patients with DLBCL [6]): did not produce any responses
- enhancement of cytotoxicity of bortezomib [7]: did not enhance
- single agent activity in AITL (primary AITL cells): more effective than TGR-1202
- inhibition of phosphorylation of 4EBP1 [1]: moderately inhibit
- inhibition of phosphorylation of AKT [1]: more effective than TGR-1202
- activity inhibiting LY7 lymphoma cells (viability) (DLBCL cell line LY7): only mild and comparable activity

SMILES: Nc1ncnc2c1c(COc1cccc(Cl)c1)nn2C1CCOCC1 [PF4800567]
- IC50 (CK1ε [2]): 0.0074 µM
- suppression of phosphorylation of 4EBP1 and protein level of c-Myc ([3]; LY7, 6 hours, 25-50 μM): only at the concentration of 50 μM
- phosphorylation of p70S6K1 ([3]; LY7, 24 h): substantially increased
- reduction of ratio of LucR/LucF by 50% [8]: not
- activity inhibiting LY7 lymphoma cells (viability) (DLBCL cell line LY7): only mild and comparable activity
- autophosphorylation of CK1ε (up-shifting of the CK1ε band) (CK1ε [4]; LY7, 1 μM, 1 h pretreatment then calyculin A): no up-shifting

SMILES: CC(C)n1nc(-c2cc3cc(O)ccc3[nH]2)c2c(N)ncnc21 [PP242]
- phosphorylation of p70S6K1 ([3]; LY7, 24 h): potently inhibited
- phosphorylation of 4EBP1 at S65 ([3]; LY7, 24 h, 750 nM): markedly inhibited
- level of c-Myc ([3]; LY7, 24 h, PP242 treatment): moderately reduced

SMILES: CC(C)Oc1ccc(-c2nn([C@@H](C)c3oc4ccc(F)cc4c(=O)c3-c3cccc(F)c3)c3ncnc(N)c23)cc1F [TGR-1202]
- effect on caspase 3/7 activation by carfilzomib (caspase 3/7; 1 μM added to carfilzomib): markedly enhanced
- partial response in patients with DLBCL (patients with DLBCL [9]): 3 of 14
- tumor response in xenograft (MOLT-4 cell line): significantly shrank the tumors
- IC50 (CK1ε [2]): 6 µM
- beta-catenin level (Western blot, LY7 cells): inhibited beta-catenin
- suppression of phosphorylation of 4EBP1 and protein level of c-Myc ([3]; LY7, 6 h, 15-50 μM): more potent than idelalisib and PF4800567
- suppression of phosphorylation of 4EBP1 and protein level of c-Myc ([3]; LY7, 6 hours, 25-50 μM): potently suppressed
- reduction of protein level of c-Myc ([3]; LY7, 24 h): more effective than idelalisib and PF4800567
- inhibition of phosphorylation of 4EBP1 and protein level of c-Myc ([3]; LY7, 24 h, 25 μM): highly effective
- expression of c-Myc at 24 h ([3]; LY7, 24 h): not relieved
- reduction of phosphorylation of AKT (Ser473) [10]: 43-87%
- inhibition of phosphorylation of 4EBP1 [1]: moderately inhibit
- activity inhibiting LY7 lymphoma cells (viability) (DLBCL cell line LY7): significantly more effective than idelalisib and PF4800567
- potency in cytotoxicity assay (DLBCL cell line LY7; LY7, 24 h): most potent among these compounds
- synergy with PP242 inhibiting phosphorylation of 4EBP1 at T70 and cell viability (DLBCL cell line LY7; LY7, PP […], other drugs 5 and 15 μM): synergistic with PP242
